Source: US20130165368A1, “ANTIMICROBIAL COMPOUNDS” (priority 2010, published 2013)
≈ marks a conversion by molar mass, not a printed value. Like-named read-outs stand apart in the source and are kept apart here.

Tests used:
Assay type in all cases: cell-based
Enterobacter cloacae = assay: MIC agar dilution, micro-organism 4 (11936); settings: Enterobacter cloacae 11936
Experimental: (§1) Throughout the period of testing the microbial strains were subcultured and incubated for 18-20 hours at 37° C. on a weekly basis. Horse blood agar plates were used to sustain the micro-organisms both prior to and throughout testing. The alkoxylated alkanols listed in Table II below were obtained (these are obtainable from Sigma-Aldrich Company Ltd, Dorset, England), each having a GC purity of at least 97%.
(§2) Molar equivalent concentrations were used to allow comparison between compounds of differing molecular mass. Due to weighing difficulties, any compound in solid form was melted in a water bath prior to dilution. To make ten-times strength concentrations, which takes into account agar dilution, 0.0352 mmol of each compound was weighed into plastic universal bottles and 4 mL of sterile distilled water (SDW) was added. To produce a homogenous emulsion the universals were vortexed; once achieved the emulsions were serial diluted by adding 2 mL to 2 mL of SDW.
(§3) Myristyl alcohol and lauryl alcohol were re-weighed and dissolved in 25 μL of the polar solvent 1-methyl-2-pyrrolidone (M6762; Sigma-Aldrich) in sterile glass universals due to an inability to achieve an even suspension. To maintain an even emulsion in the presence of SDW 37.5 μL of the non-ionic detergent Tween 20 (P1379, Sigma-Aldrich) was also added. 3.9375 mL of SDW was added to these, to create a 4 mL volume; they were vortexed and diluted as before.
(§4) For every 100 mL of Isosensitest agar (IST) (CM0471; Oxoid, Basingstoke, England), 3.1 g of the IST powder was added to 100 mL SDW (as per manufacturer's instructions) and sterilised for 15 minutes at 121° C. Once sterilised, the molten agar was cooled to 50° C. in a water-bath. Subsequently 4.8 g of CCEY powder (BC2160; Bioconnections, Wetherby, England), also known as Brazier's medium, was added to 100 mL SDW for every 100 mL of agar needed. This was then sterilised for 15 minutes at 121° C. Once sterilised the molten agar was cooled to 50° C. in a water-bath and 4 mL of egg-yolk emulsion (S2073; TCS Biosciences Ltd, Buckingham, United Kingdom) and 1 mL of lysed defibrinated horse blood (HB035; TCS Biosciences Ltd, Buckingham, United Kingdom) were also added for every 100 mL needed. Horse blood lysis is achieved by dilution to half concentration with SDW; when fully lysed the mixture will turn dark red in colour.
(§5) 18 mL agar was added to each universal and then poured into sterile Petri dishes. This step creates a 1/10 dilution resulting in agar plates of the required strength. Control plates for each set of strains were created by adding 18 mL of agar to 2 mL of SDW.
(§6) Suspensions of each bacterial species were prepared with a density equal to that of a 0.5 McFarland standard using a densitometer. All suspensions were made using sterile distilled water and fresh 18-20 hour cultures. As a 0.5 McFarland standard contains 1.5×10^8 CFU/mL and the multipoint inoculators applies 1 μL spots of liquid, each bacterial suspension was diluted 1/15 (20 μL suspension to 280 μL sterile distilled water).
(§7) Bacterial suspensions were prepared from fresh 18-24 hour cultures as previously described. 1 μL of each strain was inoculated onto all 100 agar plates containing a different chemical concentration and the 2 control plates. This was done using a multipoint inoculator which inoculates 20 strains per plate. All plates were incubated for 22 hours at 37° C. in aerobic conditions.
(§8) Each plate was examined for bacterial growth after 22 and 48 hours, with each being incubated in between examinations. A positive result was recorded as growth of ≧10 colonies. A negative result was recorded as growth of <10 colonies as this is equivalent to 99.9% inhibition. The lowest concentration of chemical that inhibited growth was recorded as the MIC. The results are recorded in Table IV below, where the numbers are quoted in mmol/L.
(§9) Further experiments have also been conducted to determine the MIC of a number of other compositions as follows. […]

Candida albicans = assay: MIC agar dilution, micro-organism 19 (90028); settings: Candida albicans 90028
Method in brief: (§10)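 Agar dilution in Isosensitest/CCEY agar with egg yolk and lysed horse blood; compounds as aqueous emulsions (myristyl and lauryl alcohol with 1-methyl-2-pyrrolidone and Tween 20). 1 µL spots of 1/15-diluted 0.5 McFarland suspensions, 37 °C aerobic, read at 22 and 48 h; MIC (mmol/L) is lowest concentration giving <10 colonies.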

Candida glabrata = assay: MIC agar dilution, micro-organism 20 (3943); settings: Candida glabrata 3943
Method in brief: as §10

Listeria monocytogenes = assay: MIC agar dilution, micro-organism 15 (11994); settings: Listeria monocytogenes 11994
Method in brief: as §10

Salmonella typhimurium = assay: MIC agar dilution, micro-organism 6 (74); settings: Salmonella typhimurium 74
Experimental: as §1, §2, §3, §4, §5, §6, §7, §8, §9

Yersinia enterocolitica = assay: MIC agar dilution, micro-organism 8 (11176); settings: Yersinia enterocolitica 11176
Experimental: as §1, §2, §3, §4, §5, §6, §7, §8, §9

[1] = system: MRSA GER 131/98 (Sger Iidc); assay: MIC agar dilution, MRSA strain 35; settings: Staphylococcus aureus
Experimental: as §2, §4, §5, §6, §7, §8
(§11) Given the positive performance of the ethoxylates of lauryl alcohol in reducing the MIC for a number of the micro-organisms tested, further MIC testing of Laureth-1 [C12E1] through to Laureth-8 [C12E8] was conducted on each of the following: • 10 strains of vancomycin-resistant enterococci (VRE)—listed in Table V below; and • 20 strains of methicillin-resistant Staphylococcus aureus (MRSA)—listed in Table VI.
(§12) The alkanol, alkanol derivatives, agar plates, and inocula were all prepared in the same way as described above.
(§13) The plates were examined in the same manner as described above and the results are recorded in Table VII below, where the numbers are quoted in mmol/L.

[2] = system: vancomycin-resistant enterococci (VRE); assay: MIC agar dilution, summary over 10 VRE strains; settings: Enterococcus; most, if not all, of the VRE samples
Experimental: as §11, §12, §13

[3] = system: Enterococcus faecalis (VRE) PHLS URINE 2000; assay: MIC agar dilution, VRE strain 21
Experimental: as §2, §4, §5, §6, §7, §8, §11, §12, §13

[4] = system: Enterococcus faecium (VRE) 255693 N. Tyneside; assay: MIC agar dilution, VRE strain 22
Experimental: as §2, §4, §5, §6, §7, §8, §11, §12, §13

MRSA FRA 920 = assay: MIC agar dilution, MRSA strain 38; settings: Staphylococcus aureus
Experimental: as §2, §4, §5, §6, §7, §8, §11, §12, §13

MRSA EMRSA 15 1729/98 = assay: MIC agar dilution, MRSA strain 42; settings: Staphylococcus aureus
Experimental: as §2, §4, §5, §6, §7, §8, §11, §12, §13

[5] = Nakaseomyces glabratus, 22 h, 22 hrs, read-out: MIC
[6] = Nakaseomyces glabratus, 48 h, 48 hrs, read-out: MIC

SMILES | MIC (Candida albicans; 22 hrs, read-out: MIC) | MIC (Candida albicans; 48 hrs, read-out: MIC) | MIC (Candida glabrata; [5]) | MIC (Candida glabrata; [6]) | MIC (Listeria monocytogenes; 22 hrs, read-out: MIC) | MIC (Listeria monocytogenes; 48 hrs, read-out: MIC) | MIC ([1]; 22 hrs) | MIC ([1]; 48 hrs) | MIC [2] | MIC ([3]; 22 hrs) | MIC ([3]; 48 hrs) | MIC ([4]; 22 hrs) | MIC ([4]; 48 hrs) | MIC (MRSA FRA 920; 22 hrs) | MIC (MRSA FRA 920; 48 hrs) | MIC (MRSA EMRSA 15 1729/98; 22 hrs) | MIC (MRSA EMRSA 15 1729/98; 48 hrs) | further results
CCCCCCCCCCCCCOCCOCCOCCOCCOCCOCCO [C13E6, polyoxyethylene (6) tridecyl alcohol] | – | – | – | – | – | – | – | – | – | – | – | – | – | – | – | – | – | MIC (Enterobacter cloacae; 22 hrs): >0.88 mmol/L; MIC (Enterobacter cloacae; 48 hrs): >0.88 mmol/L; MIC (Candida albicans; 22 hrs): >880 µM; MIC (Candida albicans; 48 hrs): >880 µM; MIC (Candida glabrata; 22 hrs): >880 µM; MIC (Candida glabrata; 48 hrs): >880 µM; MIC (Listeria monocytogenes; 22 hrs): >880 µM; MIC (Listeria monocytogenes; 48 hrs): >880 µM; MIC (Salmonella typhimurium; 22 hrs): >0.88 mmol/L; MIC (Salmonella typhimurium; 48 hrs): >0.88 mmol/L; MIC (Yersinia enterocolitica; 22 hrs): >0.88 mmol/L; MIC (Yersinia enterocolitica; 48 hrs): >0.88 mmol/L
CCCCCCCCCCCCCCCCO [C0, 1-Hexadecanol, reference compound] | > 880 µM | > 880 µM | 880 µM (≈ 213 µg/mL) | > 880 µM | > 880 µM | > 880 µM | – | – | – | – | – | – | – | – | – | – | – | MIC (Enterobacter cloacae; 22 hrs, read-out: MIC): > 0.88 mmol/L; MIC (Enterobacter cloacae; 48 hrs, read-out: MIC): > 0.88 mmol/L; MIC (Salmonella typhimurium; Salmonella enterica, 22 hrs, read-out: MIC): 0.88 mmol/L (≈ 213 µg/mL); MIC (Salmonella typhimurium; Salmonella enterica, 48 hrs, read-out: MIC): 0.88 mmol/L (≈ 213 µg/mL); MIC (Yersinia enterocolitica; 22 hrs, read-out: MIC): > 0.88 mmol/L; MIC (Yersinia enterocolitica; 48 hrs, read-out: MIC): > 0.88 mmol/L
CCCCCCCCCCCCOCCOCCOCCO [L3, Triethylene Glycol Monododecyl Ether] | 220 µM (≈ 70.1 µg/mL) | 220 µM (≈ 70.1 µg/mL) | 110 µM (≈ 35 µg/mL) | 110 µM (≈ 35 µg/mL) | 110 µM (≈ 35 µg/mL) | 220 µM (≈ 70.1 µg/mL) | 110 µM (≈ 35 µg/mL) | 110 µM (≈ 35 µg/mL) | ≤ 440 µM | 220 µM (≈ 70.1 µg/mL) | 220 µM (≈ 70.1 µg/mL) | 880 µM (≈ 280 µg/mL) | > 880 µM | 55 µM (≈ 17.5 µg/mL) | 55 µM (≈ 17.5 µg/mL) | 110 µM (≈ 35 µg/mL) | 110 µM (≈ 35 µg/mL) | –
CCCCCCCCCCCCOCCOCCO [L2, Diethylene Glycol Monododecyl Ether] | 220 µM (≈ 60.4 µg/mL) | 220 µM (≈ 60.4 µg/mL) | 110 µM (≈ 30.2 µg/mL) | 110 µM (≈ 30.2 µg/mL) | 220 µM (≈ 60.4 µg/mL) | 220 µM (≈ 60.4 µg/mL) | 220 µM (≈ 60.4 µg/mL) | 220 µM (≈ 60.4 µg/mL) | ≤ 440 µM | 220 µM (≈ 60.4 µg/mL) | 220 µM (≈ 60.4 µg/mL) | 440 µM (≈ 121 µg/mL) | 440 µM (≈ 121 µg/mL) | 110 µM (≈ 30.2 µg/mL) | 110 µM (≈ 30.2 µg/mL) | 110 µM (≈ 30.2 µg/mL) | 110 µM (≈ 30.2 µg/mL) | –
CCCCCCCCCCCCOCCOCCOCCOCCOCCO [L5, Pentaethylene Glycol Monododecyl Ether] | 440 µM (≈ 179 µg/mL) | 440 µM (≈ 179 µg/mL) | 110 µM (≈ 44.7 µg/mL) | 220 µM (≈ 89.5 µg/mL) | 110 µM (≈ 44.7 µg/mL) | 220 µM (≈ 89.5 µg/mL) | 110 µM (≈ 44.7 µg/mL) | 110 µM (≈ 44.7 µg/mL) | ≤ 440 µM | 110 µM (≈ 44.7 µg/mL) | 110 µM (≈ 44.7 µg/mL) | 220 µM (≈ 89.5 µg/mL) | 220 µM (≈ 89.5 µg/mL) | 110 µM (≈ 44.7 µg/mL) | 110 µM (≈ 44.7 µg/mL) | 110 µM (≈ 44.7 µg/mL) | 110 µM (≈ 44.7 µg/mL) | –
CCCCCCCCCCCCOCCOCCOCCOCCOCCOCCO [L6, Hexaethylene Glycol Monododecyl Ether] | > 880 µM | 880 µM (≈ 397 µg/mL) | 220 µM (≈ 99.1 µg/mL) | 220 µM (≈ 99.1 µg/mL) | 110 µM (≈ 49.6 µg/mL) | 110 µM (≈ 49.6 µg/mL) | 110 µM (≈ 49.6 µg/mL) | 110 µM (≈ 49.6 µg/mL) | – | 220 µM (≈ 99.1 µg/mL) | 220 µM (≈ 99.1 µg/mL) | 440 µM (≈ 198 µg/mL) | > 880 µM | 220 µM (≈ 99.1 µg/mL) | 220 µM (≈ 99.1 µg/mL) | 110 µM (≈ 49.6 µg/mL) | 110 µM (≈ 49.6 µg/mL) | –
CCCCCCCCCCCCOCCO [L1, Ethylene Glycol Monododecyl Ether] | 440 µM (≈ 101 µg/mL) | 440 µM (≈ 101 µg/mL) | 220 µM (≈ 50.7 µg/mL) | 220 µM (≈ 50.7 µg/mL) | 440 µM (≈ 101 µg/mL) | 880 µM (≈ 203 µg/mL) | 220 µM (≈ 50.7 µg/mL) | 220 µM (≈ 50.7 µg/mL) | ≤ 440 µM | 220 µM (≈ 50.7 µg/mL) | 220 µM (≈ 50.7 µg/mL) | 440 µM (≈ 101 µg/mL) | 440 µM (≈ 101 µg/mL) | 220 µM (≈ 50.7 µg/mL) | 220 µM (≈ 50.7 µg/mL) | 220 µM (≈ 50.7 µg/mL) | 220 µM (≈ 50.7 µg/mL) | –
